Test system: bovine blood treated with heparin
Assay: Hemolysis of heparin-treated bovine blood, absorbance of supernatant at 398 nm
Conditions: sample added to 1.4 mL heparinized bovine blood, room temperature, 10 minutes
Protocol: 100 μL of a 5 mg/mL lyophilized docetaxel preparation (50 mM sodium oleate reconstituted with 6% liposome (Doc-100), 200 μL of 5 mg/mL lyophilized docetaxel containing 50 mM sodium oleate and reconstituted with 6% liposome (Doc-200), […] of placebo containing 50 mM sodium oleate and reconstituted with 6% liposome (Placebo-100), 200 μL of placebo containing 50 mM sodium oleate and reconstituted with 6% liposome (Placebo-200), […] of Reverse osmotic deionized water (RODI (positive control)), 50 n1, of 50 mM sodium oleate (Na oleate-50) in isotonic 2.5% glycerol or 100 μL of 50 mM sodium oleate (Na oleate-100), or 200 μL of phosphate buffered saline (negative control)) was added to 1.4 mL of bovine blood treated with heparin. Doc-100 and Doc-200 were prepared using procedures similar to those in Examples 1 and 2. The samples were incubated at room temperature for 10 minutes, and then centrifuged at 8000 rpm for 20 minutes. The supernatant was used for spectral analysis. The absorbance of the samples was measured by UV-scanning the samples at wavelengths from 190 nm to 810 nm. The high absorbance at 398 nm is due to hemolysis of the blood.

## CCCCCCCC/C=C\CCCCCCCC(=O)[O-].[Na+] [Na oleate-50, sodium oleate]
  hemolysis (absorbance at 398 nm, FIG. 1): complete hemolysis
